The source of these data is patent CN106420773A, “一种治疗放射性肠炎的中西药组合物及其制备方法和应用” (Zhengzhou Lidiya Medicine Technology Co Ltd, priority 2016, dated 2017).

The nature of the experiment: Clinical trial in patients receiving pelvic radiotherapy (radiation enteritis). In kind it is in vivo, human. Conditions: once daily, 10 days, with conventional radiotherapy.
Setting [1] is: number of patients of 50 per group.

Regarding `CC(O)C(=O)[O-].CC(O)C(=O)[O-].[Ca+2]` (stereo not shown) [对比例2, 乳酸钙], the total effective rate (50 patients per group) is 4%. Under setting [1], this compound returned a cured of 0, an improved of 2 and an ineffective of 48.
